Results on 15 molecules are retold here after PMC9370530, “Modified Benzoxazole-Based VEGFR-2 Inhibitors and Apoptosis Inducers: Design, Synthesis, and Anti-Proliferative Evaluation” (Molecules, 2022).

The subject of one assay is breast cancer (MCF-7). Description: In vitro anti-proliferative MTT assay, MCF-7. The settings on record: Homo sapiens, MCF7, 24 h, read-out: IC50 MCF-7.
For a further assay, the target named is T1, VEGFR-2 kinase (Homo sapiens, UniProt P35968).
T1 construct: purchased
T1 sequence (P35968 20-1356): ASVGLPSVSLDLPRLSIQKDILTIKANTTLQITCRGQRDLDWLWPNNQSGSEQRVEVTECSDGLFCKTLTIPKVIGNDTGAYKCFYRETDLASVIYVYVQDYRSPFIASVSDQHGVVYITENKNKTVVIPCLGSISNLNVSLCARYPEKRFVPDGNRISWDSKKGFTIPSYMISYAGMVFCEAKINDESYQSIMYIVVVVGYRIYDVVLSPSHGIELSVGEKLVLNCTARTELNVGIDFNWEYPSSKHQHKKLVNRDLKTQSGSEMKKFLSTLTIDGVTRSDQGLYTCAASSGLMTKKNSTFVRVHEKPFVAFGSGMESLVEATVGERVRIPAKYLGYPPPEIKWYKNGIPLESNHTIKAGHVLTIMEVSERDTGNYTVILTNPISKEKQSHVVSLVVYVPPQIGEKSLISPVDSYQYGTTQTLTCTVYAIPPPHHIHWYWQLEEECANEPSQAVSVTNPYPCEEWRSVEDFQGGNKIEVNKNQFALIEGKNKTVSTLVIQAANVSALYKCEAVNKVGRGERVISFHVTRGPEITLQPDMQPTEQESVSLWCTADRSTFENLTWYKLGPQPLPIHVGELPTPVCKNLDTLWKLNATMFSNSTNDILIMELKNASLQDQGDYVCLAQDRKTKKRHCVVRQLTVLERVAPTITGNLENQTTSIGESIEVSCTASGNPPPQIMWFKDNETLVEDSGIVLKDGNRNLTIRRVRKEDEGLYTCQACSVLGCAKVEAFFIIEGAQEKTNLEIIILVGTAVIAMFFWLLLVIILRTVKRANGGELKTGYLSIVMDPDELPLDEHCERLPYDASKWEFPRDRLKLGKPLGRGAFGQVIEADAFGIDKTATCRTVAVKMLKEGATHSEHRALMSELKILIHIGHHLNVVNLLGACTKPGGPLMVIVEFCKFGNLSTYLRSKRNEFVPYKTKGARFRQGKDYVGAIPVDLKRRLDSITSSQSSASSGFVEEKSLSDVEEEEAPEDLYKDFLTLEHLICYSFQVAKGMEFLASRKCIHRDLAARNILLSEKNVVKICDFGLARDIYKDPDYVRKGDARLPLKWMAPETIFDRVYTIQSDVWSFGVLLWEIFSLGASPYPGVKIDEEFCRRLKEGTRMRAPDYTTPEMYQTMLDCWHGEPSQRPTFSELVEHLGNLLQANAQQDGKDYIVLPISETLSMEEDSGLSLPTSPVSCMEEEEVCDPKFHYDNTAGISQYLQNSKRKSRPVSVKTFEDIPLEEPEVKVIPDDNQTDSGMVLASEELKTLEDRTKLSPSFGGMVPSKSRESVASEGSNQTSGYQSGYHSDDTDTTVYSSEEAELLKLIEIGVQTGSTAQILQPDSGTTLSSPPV
Description: In vitro VEGFR-2 kinase inhibitory assay (ELISA kit). The assay is classed as biochemical. The following applies: human VEGFR-2 ELISA kit; median of three experiments. A general note: An ELISA detects its analyte on a solid surface through an enzyme-linked reagent.

The test system of assay [1] is colorectal carcinoma (HCT116). Nature of the assay: In vitro anti-proliferative MTT assay, HCT116. The settings on record: Homo sapiens, HCT-116, 24 h, read-out: IC50 HCT116. A general note: Formazan colour is commonly taken as a measure of viable cells.
Description: (§6) This test was carried out on three different human cancer cell lines: MCF-7, HCT116, and HepG2 using the MTT method [66].
(§7) This test was carried out on three different human cancer cell lines: MCF-7, HCT116, and HepG2, We performed this colorimetric experiment with quantitative assessment of anticancer activity in accordance with the MTT method [1] The assay is based primarily on a biochemical reaction in which mitochondrial succinate dehydrogenase transforms yellow tetrazolium bromide (MTT) to a purple formazan derivative in live cells.
(§8) with 10% foetal bovine serum in general. In a 5 percent CO2 incubator at 37 °C, penicillin (100 units/mL) and streptomycin (100g/mL) were introduced. The cells were seeded at a density of 1.0x10^4 cells/well in a 96-well plate at 37 C for 48 hours under 5% CO2. […] The cells were given varying concentrations of the novel compounds and cultured for 24 hours. Then we add 20 l of MTT in a 5 mg/ml solution and let it sit for 4 hours.
(§9) 100 µl of DMSO was applied to each well to dissolve the purple formazan produced.
(§10) curve for each conc. using Graphpad Prism software (San Diego, CA. USA). The data presented are the mean of at least three separate experiments.
(§11) The IC50 of the selected derivatives were determined against VEGFR-2 kinase with enzyme linked immunosorbent assay (ELISA). We used a human VEGFR-2 ELISA kit. VEGFR-2 specific antibody was seeded on a 96 well microplate and 100 μL of solution of the standard or the tested compound was added. After incubation for 2.5 h. at room temperature and washing, 100 μL of prepared biotin antibody was added. Incubation of the plates for 1 h at room temperature and then washing were carried out before addition of streptavidin solution (100 μL). The mixture was incubated for 1h at room temperature and then washed. After that, 100 μL of tetramethybenzidine (TMB) substrate solution was added before incubation for half an hour at room temperature.
(§12) Finally, 50 μL of the stop solution was added immediately before the reading at 450 nm.
(§13) Percent inhibition was calculated by the comparison of compounds treated to control
Assay [2] concerns hepatocellular carcinoma (HepG2). Nature of the assay: In vitro anti-proliferative MTT assay, HepG2. The settings on record: Homo sapiens, HepG2, 24 h, read-out: IC50 HepG2.
Description: as §6, §7, §8, §9, §10, §11, §12, §13
A further assay relates to TNF-α. Nature of the assay: TNF-α level in HepG2 cells by qRT-PCR. It is filed as cell-based. The settings on record: Homo sapiens, 2.43 µM for 24 h. As for the experimental part: (§1) The inhibition of these mediators caused apoptosis of tumor cells. Therefore, further investigation was conducted to see how compound 8 affect these cytokines (TNF-α and IL-6). Compound 8d was added to HepG2 cells at a concentration of 2.43 µM for 24 h, then the levels of TNF-α and IL-6 were measured using the qRT-PCR method.
(§2) The effects of 8d on TNF-α and IL-6 were determined using the qRT-PCR technique. The Supplementary data provides further detailed information about the study. […]
(§3) HepG2 cells were cultured according to the methodology described by Wang et al. The cells were planted and cultured for 24 h in six-well plates. Each well had 2 × 10^5 cells in it. Then 10% fetal bovine serum (FBS) was added, and the cells were incubated at 37 °C with 5% CO2.
(§4) The medium was then changed. DMSO (1% v/v) containing 2.43 μM of compound 8d was substituted. Following that, the cells were rinsed in cold phosphate buffered saline. […]
(§5) 1.5. Quantitative Real Time Reverse-Transcriptase PCR (qRT-PCR) technique The effects of compound 8d on the expression of TNF-α and IL-6 were determined using qRT-PCR technique. The quantity of immunomodulatory proteins (TNF-α and IL-6) in control and compound 8d (at the IC50 concentration)-treated HepG2 cells was assessed by qRT-PCR (reference). […]
Background: Quantitative PCR measures a nucleic acid by following its amplification.

For the next assay, the system named is HepG2 cells. Description: HepG2 cell cycle analysis (PI flow cytometry). It is filed as cell-based, human. The settings on record: 2.43 μM of compound. As for the experimental part:
The most promising candidate, compound 8d, was further evaluated by analyzing its effect on cycle phases of the HepG2 cells. From the results presented in Table 3, it can be noticed that a large percentage (70.23%) of cells treated with 8d was accumulated at the pre-G1 phase compared to the 2.70% reported for control cells. This clearly indicates the ability of compound 8d to inhibit HepG2 cell proliferation efficiently at the pre-G1 phase (Figure 5).
HepG2 Cell Cycle Analysis was performed for compound 8d according to the methodology reported by Wang et al.. The Supplementary data provides further detailed information about the study. […]
as §3
The medium was then changed. DMSO (1% v/v) containing 2.43 μM of compound 8d was substituted. Following that, the cells were rinsed in cold phosphate buffered saline. (PBS), then fixed in 70% ethyl alcohol, washed in PBS, and […]. After that, the DNA fluorochrome propidium iodide (PI) was maintained at […] for 1 5 minutes at 37 °C. A FACS Caliber flow cytometer was used to analyze the samples. […]

Another assay has as its system IL-6. Nature of the assay: IL-6 level in HepG2 cells by qRT-PCR. It is filed as cell-based. The settings on record: Homo sapiens, 2.43 µM for 24 h. As for the experimental part:
as §1, §2, §3, §4, §5

Molecules are shown by their SMILES.

Description for breast cancer (MCF-7): as §6, §7, §8, §9, §10, §11, §12, §13

What is called IC50 is the midpoint of a concentration-inhibition curve. With `Cc1ccc(NC(=O)c2ccc(NC(=O)CSc3nc4ccccc4o3)cc2)cc1` [Compound 8a, 4-(2-(Benzo[d]oxazol-2-ylthio)acetamido)-N-(p-tolyl)benzamide], the IC50 with breast cancer (MCF-7) was 9.49 ± 0.75 µM; against VEGFR-2 kinase, 0.0579 µM; in assay [1], 10.1 ± 0.95 µM; in assay [2], 10.4 ± 0.98 µM.
As for `Cc1ccc(NC(=O)c2ccc(NC(=O)CSc3nc4cc(Cl)ccc4o3)cc2)cc1` [Compound 8b, 4-(2-((5-Chlorobenzo[d]oxazol-2-yl)thio)acetamido)-N-(p-tolyl)benzamide], the IC50 was determined as 12.4 ± 0.92 µM with breast cancer (MCF-7), 11.6 ± 0.91 µM in assay [1] and 10.4 ± 0.92 µM in assay [2].
`Cc1ccc(NC(=O)c2ccc(NC(=O)CSc3nc4cc(C)ccc4o3)cc2)cc1` [Compound 8c, 4-(2-((5-Methylbenzo[d]oxazol-2-yl)thio)acetamido)-N-(p-tolyl)benzamide]: the IC50 in the assay on breast cancer (MCF-7) is 9.15 ± 0.85 µM; against VEGFR-2 kinase, 1.14 µM; in assay [1], 6.12 ± 0.55 µM; in assay [2] it was 8.16 ± 0.77 µM.
As usually defined, the inhibition is the percentage by which the read-out fell short of the control. A low value points to a weak effect. In the case of `O=C(CSc1nc2ccccc2o1)Nc1ccc(C(=O)Nc2ccc([N+](=O)[O-])cc2)cc1` [Compound 8d, 4-(2-(Benzo[d]oxazol-2-ylthio)acetamido)-N-(4-nitrophenyl)benzamide], the IC50 was 3.43 ± 0.15 µM in the assay with breast cancer (MCF-7), 2.79 ± 0.19 µM in assay [1] and 2.43 ± 0.16 µM in assay [2]. Moreover, the results for the inhibition at 2.43 µM with TNF-α and with IL-6 were 90.5% and 92.2%, respectively. For the same molecule, the “%Pre-G1” value in the assay on HepG2 cells (control 2.70) stood at 70.23%. In addition, the “%G2-M” value with HepG2 cells (control 19.31) amounted to 19.1%. The “%G0–G1” value with HepG2 cells (control 39.81) turned out to be 31.1%. For the same molecule, in the assay on HepG2 cells (control 40.88), the “%S” value was found to be 49.8%.
Turning to `O=C(CSc1nc2cc(Cl)ccc2o1)Nc1ccc(C(=O)Nc2ccc([N+](=O)[O-])cc2)cc1` [Compound 8e, 4-(2-((5-Chlorobenzo[d]oxazol-2-yl)thio)acetamido)-N-(4-nitrophenyl) benzamide], the IC50 is 5.69 ± 0.44 µM with breast cancer (MCF-7), 0.0741 µM against VEGFR-2 kinase, 3.29 ± 0.26 µM in assay [1] and 4.51 ± 0.35 µM in assay [2].
For `Cc1ccc2oc(SCC(=O)Nc3ccc(C(=O)Nc4ccc([N+](=O)[O-])cc4)cc3)nc2c1` [Compound 8f, 4-(2-((5-Methylbenzo[d]oxazol-2-yl)thio)acetamido)-N-(4-nitrophenyl) benzamide], the IC50 worked out at 4.97 ± 0.32 µM in the assay on breast cancer (MCF-7), 0.204 µM against VEGFR-2 kinase, 4 ± 0.33 µM in assay [1] and 4.41 ± 0.35 µM in assay [2].
Take `CC(=O)c1ccc(NC(=O)c2ccc(NC(=O)CSc3nc4cc(Cl)ccc4o3)cc2)cc1` [Compound 8g, N-(4-Acetylphenyl)-4-(2-((5-chlorobenzo[d]oxazol-2-yl)thio)acetamido) benzamide]: the values for the IC50 (in the assay on breast cancer (MCF-7); in assay [1]; in assay [2]) were 12.5 ± 1.1 µM, 10.4 ± 0.92 µM and 8.44 ± 0.65 µM, respectively.
Turning to `CC(=O)c1ccc(NC(=O)c2ccc(NC(=O)CSc3nc4cc(C)ccc4o3)cc2)cc1` [Compound 8h, N-(4-Acetylphenyl)-4-(2-((5-methylbenzo[d]oxazol-2-yl)thio)acetamido) benzamide], the IC50 in the assay on breast cancer (MCF-7) is 3.53 ± 0.28 µM; against VEGFR-2 kinase it was 0.114 µM; in assay [1], 2.94 ± 0.19 µM; in assay [2] it was 2.76 ± 0.18 µM.
For the molecule `O=C(CSc1nc2ccccc2o1)Nc1ccc(C(=O)NCc2ccccc2)cc1` [Compound 8i, 4-(2-(Benzo[d]oxazol-2-ylthio)acetamido)-N-benzylbenzamide], the IC50 came out at 10 ± 0.95 µM with breast cancer (MCF-7), 0.317 µM against VEGFR-2 kinase, 8.53 ± 0.77 µM in assay [1] and 5.92 ± 0.47 µM in assay [2].
Regarding `O=C(CSc1nc2cc(Cl)ccc2o1)Nc1ccc(C(=O)NCc2ccccc2)cc1` [Compound 8j, N-Benzyl-4-(2-((5-chlorobenzo[d]oxazol-2-yl)thio)acetamido)benzamide], the values for the 50% inhibitory concentration (IC50) (with breast cancer (MCF-7); in assay [1]; in assay [2]) were 16.9 ± 1.5 µM, 18.2 ± 1.5 µM and 14.2 ± 1.1 µM, respectively.
Consider `Cc1ccc2oc(SCC(=O)Nc3ccc(C(=O)NCc4ccccc4)cc3)nc2c1` [Compound 8k, N-Benzyl-4-(2-((5-methylbenzo[d]oxazol-2-yl)thio)acetamido)benzamide], for which the IC50 with breast cancer (MCF-7) came out at 8.37 ± 0.77 µM; at VEGFR-2 kinase, 0.653 µM; in assay [1] it was 8.09 ± 0.71 µM; in assay [2], 10.1 ± 0.93 µM.
As for `O=C(CSc1nc2ccccc2o1)Nc1ccc(C(=O)NCCc2ccccc2)cc1` [Compound 8l, 4-(2-(Benzo[d]oxazol-2-ylthio)acetamido)-N-phenethylbenzamide], the IC50 in the assay on breast cancer (MCF-7) came out at 12.5 ± 1.05 µM; in assay [1], 14.2 ± 1.2 µM; in assay [2] it was 11.2 ± 0.95 µM.
Regarding `Cc1ccc2oc(SCC(=O)Nc3ccc(C(=O)NCCc4ccccc4)cc3)nc2c1` [Compound 8m, 4-(2-((5-Methylbenzo[d]oxazol-2-yl)thio)acetamido)-N-phenethylbenzamide], the IC50 in the assay on breast cancer (MCF-7) was found to be 25.8 ± 2.1 µM; in assay [1], 16.4 ± 1.3 µM; in assay [2], 28.6 ± 2.1 µM.
For the molecule `C[C@@H]1C[C@H]2[C@@H]3CCC4=CC(=O)C=C[C@]4(C)[C@@]3(F)[C@@H](O)C[C@]2(C)[C@@]1(O)C(=O)CO` [Dexamethasone, reference compound], the inhibition at 2.43 µM in the assay on TNF-α came out at 82.5%; in the assay on IL-6, 93.2%.
In the case of `CNC(=O)c1cc(Oc2ccc(NC(=O)Nc3ccc(Cl)c(C(F)(F)F)c3)cc2)ccn1` [Sorafenib, reference compound], the IC50 in assay [1] stood at 5.3 ± 0.44 µM; in assay [2], 3.4 ± 0.25 µM.
